We go through six molecules from patent publication US20190147975A1, “SF3B1 SUPPRESSION AS A THERAPY FOR TUMORS HARBORING SF3B1 COPY LOSS” (DANA-FARBER CANCER INSTITUTE, INC., priority 2016, published 2019).

One data set relates to Hs578T, Cal51 cells. The data set is described as follows: Drug sensitivity curves for splicing inhibitors in cells without and with SF3B1 suppression. Type of data set: cell-based, human. The source says:
FIG. 26A is a series of graphs showing drug sensitivity curves for indicated splicing inhibitors (“NSC-95397”, “pladienolide B”, “spliceostatin A”) in cells (“Hs578T”, “Cal51”) without and with SF3B1 suppression.

The next data set relates to SF3B1. The data set is described as follows: Immunoblot of SF3B1 expression in Cal51 cells treated with DUB inhibitors. It counts as cell-based, human. The following applies: treated for 4 or 24 hours. On the procedure:
FIG. 37 is an immunoblot showing SF3B1 expression in Cal51 cells treated with de-ubiquitinase (DUB) inhibitors (“PR-619”, “b-AP15”, “SJB3-019A”) for 4 or 24 hours. For all figures, *p<0.05, **p<0.01, ***p<0.001 unless otherwise indicated, and error bars represent +/−standard deviation.
In addition to SF3B1 RNA interference and SF3B inhibition, SF3B1 suppression can be exerted by deubiquitinase (DUB) inhibition. […] Therefore, DUB inhibitors may be capable of killing SF3B1^loss cells specifically.
For denaturing protein immunoblots, cells were washed in ice cold PBS and lysed in 1× RIPA buffer (10 mM Tris-Cl Ph 8.0, 1 mM EDTA, 1% Triton X-100, 0.1% SDS and 140 mM NaCl) supplemented with lx protease and phosphatase inhibitor cocktail (PI-290, Boston Bioproducts). Lysates were sonicated in a bioruptor (Diagenode) for 5 minutes (medium intensity) and cleared by centrifugation at 15000×g for 15 min at 4 C. Proteins were electrophoresed on polyacrylamide gradient gels (Life Technologies) and detected by chemiluminescence. For native western blotting, cells were washed in ice cold PBS and lysed in 1× sonication buffer (10% Glycerol, 25 mM HEPES pH 7.4, 10 mM MgCl2) supplemented with protease and phosphatase inhibitors. Coomassie blue native PAGE western blots were run according the manufacturer's instructions (Life Technologies).

The test system of data set [1] is CRISPR^frameshift-loss xenografts. The data set is described as follows: Xenograft growth with doxycycline-induced SF3B1 suppression. Type of data set: in vivo, nude mice. The following applies: doxycycline-induced shRNA, p=0.001. The source says:
(§1) To test the effects of SF3B1 suppression in vivo, xenografts were generated using luciferase-labeled cell lines from the CRISPR^frameshift-loss and CRISPR^neutral#1 cells containing TR-shSF3B1#3. Animals were placed on doxycycline upon detection of palpable tumors. CRISPR^frameshift-loss and CRISPR^neutral#1 cells generated tumors of similar volume in the absence of doxycycline (FIG. 34; p=0.7, repeated measures ANOVA).
All animal husbandry was done with the approval of the Dana-Farber Cancer Institute IACUC. 1×10^6 CRISPR^neutral#1 or CRISPR^frameshift-loss cells expressing TR-shSF3B1 #3 were subcutaneously injected into opposing flanks of nude mice (Foxn1 nu/nu, Harlan). Animals were randomized to control group or doxycycline treatment after detection of a palpable tumor on either flank. Mice in the doxycycline treatment arm were continuously fed a doxycycline diet (2,000 ppm). Mice were sacrificed at the end of the experiment, or when endpoints were reached based on failure to thrive according to IACUC recommendation. […]
A custom image analysis pipeline was used to systematically quantify Ki67+ cells from tumor xenografts using CellProfilier. A minimum of 3 tumors per group, totaling at least 2,440 nuclei per tumor, was used to quantify the ratio of Ki67+ cells. At least 5 individual and random microscopic images from each tumor were analyzed.

The subject of data set [2] is SF3B1^loss HCC1954 xenografts. The data set is described as follows: Growth of established xenograft tumors without or with doxycycline. Type of data set: in vivo. The following applies: with doxycycline vs without.
Excerpt: FIG. 36B is a graph showing growth of established tumors for HCC1954 xenografts without doxycycline (“−Dox”, n=13) or with doxycycline (“+Dox”, n=12) using TR-shSF3B1 #3. ***p≤0.001.
as §1

In data set [3] the test system is SF3B1^neutral Cal51 xenografts. The data set is described as above. It counts as in vivo. The following applies: with doxycycline vs without.
Excerpt: FIG. 36A is a graph showing growth of established tumors for Cal51 xenografts without doxycycline (“−Dox”, n=13) or with doxycycline (“+Dox”, n=12) using TR-shSF3B1 #3.
as §1

For the molecule `O=C1C(SCCO)=C(SCCO)C(=O)c2ccccc21` [NSC95397], the “increased effects on cells with SF3B1 copy-loss or suppression” value in the data set on Hs578T, Cal51 cells (cells with SF3B1 copy-loss or suppression) was “failed to exhibit increased effects”.
Take `N#CSc1cc(SC#N)c(N)nc1N` [PR-619]: the SF3B1 expression result in the data set on SF3B1 was “significant decrease”.
With `O=C1c2ccccc2C(=O)c2oc(-c3cccnc3)nc21` [SJB3-019A], the SF3B1 expression result in the data set with SF3B1 is reported as “significant decrease”.
As to `CO[C@]1(C)C[C@@]2(CO2)[C@H](O)[C@@H](/C=C/C(C)=C/C[C@@H]2O[C@H](C)[C@H](NC(=O)/C=C\[C@H](C)OC(C)=O)C[C@@H]2C)O1` [Spliceostatin A], in the data set with Hs578T, Cal51 cells (Hs578T breast cancer cells, when suppression of SF3B1 expression is induced), the cell death result is “increased cell death”.
Regarding `C=CC(=O)N1C/C(=C\c2ccc([N+](=O)[O-])cc2)C(=O)/C(=C/c2ccc([N+](=O)[O-])cc2)C1` [b-AP15], in the data set with SF3B1, the SF3B1 expression entry is reported as “significant decrease”.

B1: TR-shSF3B1#3: doxycycline-inducible shRNA targeting SF3B1 in pLKO-Tet-puro, SEQ ID NO: 12/13 (nucleic acid)
sense: CCGGCAACTCCTTATGGTATCGAATCTCGAGATTCGATACCATAAGGAGTTGTTTTTG
antisense: AATTCAAAAACAACTCCTTATGGTATCGAATCTCGAGATTCGATACCATAAGGAGTTG
As to B1, the “number of proliferative Ki67+ cells” value in data set [1] (Ki67 immunohistochemistry) is given as “reduced”. Moreover, the growth of tumor entry in data set [1] (luminescent quantification) is “reduced the growth of tumor”. The tumor growth result is given as “reduced tumor growth was observed” in data set [2] and “not in SF3B1^neutral Cal51 xenografts” in data set [3].
